# Source: publication PMC12022909, “A Multicomponent Reaction-Based Platform Opens New Avenues in Aryl Hydrocarbon Receptor Modulation” (ACS Central Science, 2025)
# How the values were obtained:
# [1] = system: HaCaT cells; parameters: method as in PMID 25431849, PMID 34418602; settings: cited from earlier work
# [2] = molecular target: T1, AhR (Homo sapiens, UniProt P35869); test: Global proteomics (TMT labeling, LC/MS) in MCF7 cells; format: cell-based; settings: 10 μM, 5 h
# T1 construct: Degradation of endogenous AhR was further confirmed via Western blotting and global proteomics measurements in cells treated with 12b; host or cells: MCF7
# T1 sequence (P35869 11-848): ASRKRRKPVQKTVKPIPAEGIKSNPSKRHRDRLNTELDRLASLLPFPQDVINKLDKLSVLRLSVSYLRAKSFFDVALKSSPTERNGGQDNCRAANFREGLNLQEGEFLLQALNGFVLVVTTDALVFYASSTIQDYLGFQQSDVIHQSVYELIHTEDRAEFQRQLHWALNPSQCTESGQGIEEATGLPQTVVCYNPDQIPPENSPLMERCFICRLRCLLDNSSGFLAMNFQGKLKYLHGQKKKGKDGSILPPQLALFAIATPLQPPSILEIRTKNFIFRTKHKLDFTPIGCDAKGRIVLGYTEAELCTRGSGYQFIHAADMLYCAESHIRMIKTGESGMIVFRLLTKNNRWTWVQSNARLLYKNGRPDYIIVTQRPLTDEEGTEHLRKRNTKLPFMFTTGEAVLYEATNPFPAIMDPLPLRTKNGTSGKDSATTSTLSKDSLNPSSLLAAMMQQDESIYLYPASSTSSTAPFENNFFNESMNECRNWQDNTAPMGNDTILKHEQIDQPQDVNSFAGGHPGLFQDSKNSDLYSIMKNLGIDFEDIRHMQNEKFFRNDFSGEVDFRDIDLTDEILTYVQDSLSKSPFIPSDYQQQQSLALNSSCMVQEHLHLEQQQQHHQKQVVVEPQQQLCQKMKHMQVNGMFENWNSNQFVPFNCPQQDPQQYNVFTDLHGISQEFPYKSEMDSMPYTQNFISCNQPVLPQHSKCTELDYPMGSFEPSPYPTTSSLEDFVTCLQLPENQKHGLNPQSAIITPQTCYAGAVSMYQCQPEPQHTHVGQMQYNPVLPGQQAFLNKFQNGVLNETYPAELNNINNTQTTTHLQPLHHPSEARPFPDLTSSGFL
# Procedure: (§1) Figure 6 Bifunctional AhR probes and AhR reporter in MCF7 cells. (a) Synthetic access to the conjugatable AhR ligand 5m. (b) Structure, yield, and EC50 value of the model amide 12a and MD simulation of AhR with 12a (last snapshot). (c) PROTAC-like compound 12b and dual probes 12c–d. Reaction conditions: (a) 5m (1 equiv), amine (1 equiv), HATU, DIPEA, DMF, rt, 24 h, Ar atm; (b) 5m (2 equiv), diamine (1 equiv), HATU, DIPEA, DMF, rt, 24 h, Ar atm. (d) General setup of the reporter system for quantifying AhR protein levels. (e) The population of MCF7 reporter cells (MCF7 AhR-GFP.IRES.mCherry) gated by flow cytometry and used for quantification of AhR. […] Values represent the ratio of the geometric mean of GFP and mCherry values in the gated population. (g) Change in protein levels relative to vehicle treatment (DMSO) in MCF7 cells treated with 12b at 10 μM for 5 h quantified by TMT labeling and LC/MS analysis versus p-Value. TEXT PRINTED IN THE PICTURE: (b) 12a: EC50 = 0.40 μM […]
# Generation of reporter cell lines
# The MCF7.AhR-GFP.IRES.mCherry and MCF7.AhRdPasB(d275-342)-GFP.IRES.mCherryreporter cell line was generated via lentivirus transduction. The coding sequence of the full length AhR (NM_001621.5), as well as the PasB deleted AhR (d275-342) were synthesized and cloned into a Lenti virus transfer plasmid (Artichoke, Addgene #73320), with hereby the resistance was swapped from puromycin to hygromycin. To produce the virus, 550k Lenti-X 293T cells (Takeda #632180) were seeded in a six-well plate with 3 mL of growth medium. The following day, a plasmid solution containing psPAX2 (500 ng), pVSV-G (5 ng), and AhR transfer plasmid (500 ng) was diluted in 21.5 μL of OPTIMEM, reaching a total volume of 32.5 μL. […]
# For the flow cytometry experiments 150k cells were seeded in a 24 well-plate format in 0.5 mL growing medium and left to grow in the incubator for 16 h. […] They were subsequently measured on a BD LSR II and the data analyzed with FlowJo software (version 10.5.3, TreeStar). […]
# [3] = molecular target: T2, aryl hydrocarbon receptor (AhR) (Homo sapiens, UniProt P35869); test: AhR/XRE-dependent luciferase reporter gene assay in XRE-HepG2 cells; format: cell-based; settings: XRE-HepG2 cells, 8 h; unit as in the supplements; read-out: AhR/XRE-dependent luciferase activity EC50
# T2 construct: AhR-dependent reporter gene activity was determined in human HepG2 cells stably transfected with an XRE; endogenous in cells; host or cells: XRE-HepG2 (human HepG2 hepatoma cells stably carrying an XRE-luciferase plasmid)
# T2 sequence (P35869 11-848): T1 sequence (P35869 11-848)
# [4] = molecular target: T3, AhR-GFP (Homo sapiens, UniProt P35869); test: MCF7 AhR-GFP.IRES.mCherry reporter, flow cytometry quantification of AhR protein levels; format: cell-based; settings: 5 μM, 5 h
# T3 construct: host or cells: MCF7, lentiviral transduction
# Procedure: as §1
# To test the effect of these compounds on AhR abundance, we established a cellular reporter in the breast cancer cell line MCF7. AhR in this case is fused to GFP bearing an independently translated mCherry on the same transcript to allow correction for general transcriptional interference of treatments (Figure 6d,e). […]
# T3 sequence (P08238 whole entry partner, one chain of several): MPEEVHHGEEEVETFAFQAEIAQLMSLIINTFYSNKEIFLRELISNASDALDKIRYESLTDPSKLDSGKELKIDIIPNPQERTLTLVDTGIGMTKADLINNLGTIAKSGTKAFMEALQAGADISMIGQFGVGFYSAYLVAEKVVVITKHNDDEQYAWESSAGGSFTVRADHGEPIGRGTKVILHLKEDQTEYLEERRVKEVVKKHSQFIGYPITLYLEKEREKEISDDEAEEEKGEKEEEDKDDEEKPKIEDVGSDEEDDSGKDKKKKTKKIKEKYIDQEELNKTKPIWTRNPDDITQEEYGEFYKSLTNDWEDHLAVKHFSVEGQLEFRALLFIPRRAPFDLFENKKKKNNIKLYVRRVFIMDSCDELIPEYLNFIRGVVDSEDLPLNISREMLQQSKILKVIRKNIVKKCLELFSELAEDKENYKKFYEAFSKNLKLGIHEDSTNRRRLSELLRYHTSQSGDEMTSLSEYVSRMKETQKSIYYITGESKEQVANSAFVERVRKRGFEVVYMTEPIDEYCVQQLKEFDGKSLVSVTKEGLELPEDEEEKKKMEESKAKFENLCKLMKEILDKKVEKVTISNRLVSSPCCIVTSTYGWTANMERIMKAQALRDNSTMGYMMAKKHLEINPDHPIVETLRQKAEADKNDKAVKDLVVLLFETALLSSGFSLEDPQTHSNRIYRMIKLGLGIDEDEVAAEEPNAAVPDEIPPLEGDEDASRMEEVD
# T3 sequence (O00170 whole entry partner, one chain of several): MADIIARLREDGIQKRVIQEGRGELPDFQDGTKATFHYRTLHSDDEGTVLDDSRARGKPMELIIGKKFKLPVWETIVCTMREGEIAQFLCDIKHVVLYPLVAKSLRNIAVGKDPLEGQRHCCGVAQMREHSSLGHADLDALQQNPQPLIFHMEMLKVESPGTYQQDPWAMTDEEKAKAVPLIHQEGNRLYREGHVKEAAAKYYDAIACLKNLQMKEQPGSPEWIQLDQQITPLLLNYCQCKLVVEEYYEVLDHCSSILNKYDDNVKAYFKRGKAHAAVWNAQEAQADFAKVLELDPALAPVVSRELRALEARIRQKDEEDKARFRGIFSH
"degradation of common CRBN-thalidomide off-target factors (zinc finger proteins, GSPT1) [2]",induced transcriptional activity (CYP1A1 and CYP1B1 protein levels) [2],selectivity of protein degradation [2],EC50 [3] [nM],AhR degradation in reporter system [4],Compound,UVA photosensitization [1]
–,–,–,–,–,"6-formylindolo[3,2-b]carbazole [FICZ]",nanomolar sensitizer for UVA radiation
absence of degradation,upregulation of CYP1A1 and CYP1B1,selectivity for AhR degradation,200,pronounced AhR degradation,O=C1CCC(N2C(=O)c3cccc(OCCOCCOCCOCCNC(=O)c4ccc5c(-c6c7[nH]c8ccccc8c7cc7[nH]c8ccccc8c67)c[nH]c5c4)c3C2=O)C(=O)N1 (stereo not drawn) [12b],–
